From paper PMC3973950, “Synthesis of 5-arylidine amino-1,3,4-thiadiazol-2-[(N-substituted benzyol)]sulphonamides endowed with potent antioxidants and anticancer activity induces growth inhibition in HEK293, BT474 and NCI-H226 cells” (Medicinal Chemistry Research, 2013)

Columns and labels:
[1] = In vitro cytotoxicity by MTT assay, HEK 293; format: cell-based, human; conditions: human, HEK 293 cells, read-out: % cytotoxicity (100 − % cell survival) of HEK 293 cell line
Experimental: (§1) The cancer cell line cultures of HEK 293 ([…]), BT474 (breast cancer cell line) and NCI-H226 (lung cancer) were obtained from Pasteur Institute of India, Coonoor, India, and were cultured in RPMI-1640 and 10 % heat-[…] New born calf serum with antibiotics [penicillin ([…]), streptomycin (100 μg/mL) and amphotericin B (25 μg/mL)]. The cells were maintained at 37 °C in a humidified atmosphere with 5 % CO2 and were subcultured twice a week.
(§2) The monolayer cell culture (100 μL) was trypsinized, and the cell count was adjusted to […] using medium containing 10 % new born calf serum. To each well of the 96-well microtitre plate, the diluted cell suspension (approximately 10,000 cells) (0.1 mL) was added and kept for 24 h in incubator at 37 °C in 5 % CO2 atmosphere for cell monolayer formation. After 24 h, when a partial monolayer was formed at the bottom of the well, the supernatant was flicked off, the monolayer was washed once, and different drugs, i.e. synthesized compounds (100 μL), were added to the cells in microtitre plates. The plates were then incubated at 37 °C for 3 days in 5 % CO2 atmosphere, and microscopic examination was carried out and observations recorded every 24 h. After 72 h, the sample solution in the wells was flicked off; MTT dye ([…]) was added to each well; plates were gently shaken and incubated for 4 h at 37 °C in 5 % CO2 incubator. The supernatant was removed and propanol (50 μL) was added; the plates were gently shaken to solubilize the formed formazan. The absorbance was measured using a microplate reader at a wavelength of 490 nm (Edmondson et al., [1988]; Prasad et al., [2005]; Chiruvella et al., [2008]; Chang et al., [2007]).

[2] = test system: BT474 (breast cancer cell line); assay: In vitro cytotoxicity by MTT assay, BT474; format: cell-based; conditions: Homo sapiens, 72 h, read-out: % cytotoxicity (100 − % cell survival) of BT474 cell line; for cytotoxicity at 0.005 µM: BT-474, 0.005 μM; for cytotoxicity at 0.015 µM: BT-474, 0.015 μM; for cytotoxicity at 0.045 µM: BT-474, 0.045 μM; for cytotoxicity at 0.13 µM: BT-474, 0.13 μM; for cytotoxicity at 0.41 µM: BT-474, 0.41 μM; for cytotoxicity at 1.23 µM: BT-474, 1.23 μM; for cytotoxicity at 3.7 µM: BT-474, 3.7 μM; for cytotoxicity at 11.11 µM: BT-474, 11.11 μM; for cytotoxicity at 33.33 µM: BT-474, 33.33 μM; for cytotoxicity at 100 µM: BT-474, 100 μM
Experimental: as §1, §2

[3] = In vitro cytotoxicity by MTT assay, NCI-H226; format: cell-based; conditions: human, NCI-H226 lung cancer cells, 0.015 μM, read-out: % Cytotoxicity (100 − % cell survival) of NCI-H226 cell line
Experimental: as §1, §2

[4] = test system: NCI-H226 (lung cancer cell line); assay: In vitro cytotoxicity by MTT assay, NCI-H226; format: cell-based; conditions: Homo sapiens, 72 h, read-out: % Cytotoxicity (100 − % cell survival) of NCI-H226 cell line; for cytotoxicity at 0.005 µM: NCI-H226, 0.005 μM; for cytotoxicity at 0.045 µM: NCI-H226, 0.045 μM; for cytotoxicity at 0.13 µM: NCI-H226, 0.13 μM; for cytotoxicity at 0.41 µM: NCI-H226, 0.41 μM; for cytotoxicity at 1.23 µM: NCI-H226, 1.23 μM; for cytotoxicity at 3.7 µM: NCI-H226, 3.7 μM; for cytotoxicity at 11.11 µM: NCI-H226, 11.11 μM; for cytotoxicity at 33.33 µM: NCI-H226, 33.33 μM; for cytotoxicity at 100 µM: NCI-H226, 100 μM
Experimental: as §1, §2

Compound	cytotoxicity at 72 h, 0.005 µM [1] [%]	cytotoxicity at 72 h, 0.015 µM [1] [%]	cytotoxicity at 72 h, 0.045 µM [1] [%]	cytotoxicity at 72 h, 0.13 µM [1] [%]	cytotoxicity at 72 h, 0.41 µM [1] [%]	cytotoxicity at 72 h, 1.23 µM [1] [%]	cytotoxicity at 72 h, 3.7 µM [1] [%]	cytotoxicity at 72 h, 11.11 µM [1] [%]	cytotoxicity at 72 h, 33.33 µM [1] [%]	cytotoxicity at 72 h, 100 µM [1] [%]	cytotoxicity at 0.005 µM [2] [%]	cytotoxicity at 0.015 µM [2] [%]	cytotoxicity at 0.045 µM [2] [%]	cytotoxicity at 0.13 µM [2] [%]	cytotoxicity at 0.41 µM [2] [%]	cytotoxicity at 1.23 µM [2] [%]	cytotoxicity at 3.7 µM [2] [%]	cytotoxicity at 11.11 µM [2] [%]	cytotoxicity at 33.33 µM [2] [%]	cytotoxicity at 100 µM [2] [%]	further results
CC(=O)Nc1ccc(S(=O)(=O)Nc2nnc(S(=O)(=O)NC(=O)c3ccc(Cl)cc3)s2)cc1 [Compound 6g]	15.1	16.5	18	18.3	20.1	20.8	24.2	26.1	28.7	32	30.5	32.8	33.9	34.1	37.6	38.2	39.5	42.4	44.2	46.4	cytotoxicity at 72 h, 0.015 µM [3]: 35%; cytotoxicity at 0.005 µM [4]: 33.5%; cytotoxicity at 0.045 µM [4]: 36.8%; cytotoxicity at 0.13 µM [4]: 37.3%; cytotoxicity at 0.41 µM [4]: 39.8%; cytotoxicity at 1.23 µM [4]: 40.6%; cytotoxicity at 3.7 µM [4]: 41.3%; cytotoxicity at 11.11 µM [4]: 42.6%; cytotoxicity at 33.33 µM [4]: 43.2%; cytotoxicity at 100 µM [4]: 46%
Nc1ccc(C(=O)NS(=O)(=O)c2nnc(N)s2)cc1 [Compound 4c]	36.3	37.9	38.2	39.1	39.9	40.7	42.1	46.5	47.8	49.1	30.6	32.1	34.2	35.5	36.3	37.6	38.8	39.4	40.3	41.4	cytotoxicity at 72 h, 0.015 µM [3]: 38.2%; cytotoxicity at 0.005 µM [4]: 37.6%; cytotoxicity at 0.045 µM [4]: 38.9%; cytotoxicity at 0.13 µM [4]: 39.3%; cytotoxicity at 0.41 µM [4]: 42.2%; cytotoxicity at 1.23 µM [4]: 45.4%; cytotoxicity at 3.7 µM [4]: 47.2%; cytotoxicity at 11.11 µM [4]: 49.1%; cytotoxicity at 33.33 µM [4]: 51.2%; cytotoxicity at 100 µM [4]: 54.2%
Nc1ccc(S(=O)(=O)Nc2nnc(S(=O)(=O)NC(=O)c3ccccc3)s2)cc1 [Compound 7a]	23.7	25.8	26.4	28.6	30.2	32.5	32.5	33.5	34.1	35.7	34.1	35	36.7	37.8	38.2	39.5	40.7	41.8	43.7	46.3	cytotoxicity at 72 h, 0.015 µM [3]: 28.4%; cytotoxicity at 0.005 µM [4]: 27.4%; cytotoxicity at 0.045 µM [4]: 29.2%; cytotoxicity at 0.13 µM [4]: 29.4%; cytotoxicity at 0.41 µM [4]: 30.4%; cytotoxicity at 1.23 µM [4]: 32.2%; cytotoxicity at 3.7 µM [4]: 34.5%; cytotoxicity at 11.11 µM [4]: 35.1%; cytotoxicity at 33.33 µM [4]: 36.2%; cytotoxicity at 100 µM [4]: 36.9%
Nc1nnc(S(=O)(=O)NC(=O)c2ccc(Cl)cc2)s1 [Compound 4g]	39.3	40.5	41.2	43.7	45.1	45.6	46.4	47.1	48.7	50.2	30.6	31.4	32.1	33.2	34.1	34.9	35.2	36.2	37.8	38.2	cytotoxicity at 72 h, 0.015 µM [3]: 36.1%; cytotoxicity at 0.005 µM [4]: 35.8%; cytotoxicity at 0.045 µM [4]: 37%; cytotoxicity at 0.13 µM [4]: 37.1%; cytotoxicity at 0.41 µM [4]: 37.8%; cytotoxicity at 1.23 µM [4]: 38.1%; cytotoxicity at 3.7 µM [4]: 39.4%; cytotoxicity at 11.11 µM [4]: 40.3%; cytotoxicity at 33.33 µM [4]: 41.4%; cytotoxicity at 100 µM [4]: 41.8%
Nc1nnc(S(=O)(=O)NC(=O)c2ccccc2O)s1 [Compound 4d]	37.3	38.3	39.4	40.5	42.1	42.4	44.6	47	47.6	48.1	23.2	24.2	25.3	26.2	26.8	27.1	28.1	29.4	30.3	32.1	cytotoxicity at 72 h, 0.015 µM [3]: 35.1%; cytotoxicity at 0.005 µM [4]: 34.2%; cytotoxicity at 0.045 µM [4]: 35.2%; cytotoxicity at 0.13 µM [4]: 36.3%; cytotoxicity at 0.41 µM [4]: 37.3%; cytotoxicity at 1.23 µM [4]: 38%; cytotoxicity at 3.7 µM [4]: 38.3%; cytotoxicity at 11.11 µM [4]: 39.7%; cytotoxicity at 33.33 µM [4]: 42.1%; cytotoxicity at 100 µM [4]: 42.6%
